Earlier results in PMC8468386, “Rapid Identification of Potential Drug Candidates from Multi-Million Compounds’ Repositories. Combination of 2D Similarity Search with 3D Ligand/Structure Based Methods and In Vitro Screening” (Molecules, 2021).

How the values were obtained:
PDE5 = tested on: PDE5; set-up: method as in PMID 21947759; conditions: PDE5 inhibitor first round hit compounds
Complement Component C1s = tested on: Complement Component C1s; set-up: method as in PMID 31600984; conditions: C1s inhibitors

| IC50 (PDE5) [nM] | IC50 (Complement Component C1s) [nM] | Structure (SMILES) |
| --- | --- | --- |
| 190 | – | COC(=O)c1sccc1NC(=O)N1CCc2c([nH]c3ccccc23)C1c1ccc(OC)cc1 (stereo not drawn) [compound 4] |
| 1990 | – | Cn1c(=O)c2c(nc(Oc3cccc(C=NO)c3)n2Cc2ccccc2Cl)n(C)c1=O [compound 2] |
| 6740 | – | COc1ccc(C2c3c(n(C)c4ccccc34)C(=O)N2CC(=O)N2CCN(c3ncccn3)CC2)cc1 (stereo not drawn) [compound 5] |

The remaining lines, values behind:

| Structure (SMILES) | IC50 (PDE5) [nM] | IC50 (Complement Component C1s) [nM] |
| --- | --- | --- |
| Cc1sc2nc(-c3ccco3)oc(=O)c2c1C [#17] | – | 549 |
| CCc1ccccc1OCc1nc2ccc(S(=O)(=O)N3CCOCC3)cc2[nH]1 [compound 1] | 3650 | – |
| O=c1nc(-c2cccs2)oc2cc(Cl)ccc12 [#21] | – | 241 |
